Source: US20130224761A1, “NON COVALENT MOLECULAR STRUCTURE, COMPRISING A PORPHYRIN BASED GLYCOCONJUGATE, DEVICE COMPRISING THE SAME AND ITS USE FOR DETECTION OF LECTIN” (CENTRE NATIONAL DE LA RECHERCHE SCIENTIFIQUE (CNRS), priority 2011, published 2013)

Key:
[1] = test system: PA-IIL lectin; conditions: SWNT-FET functionalized with glycoconjugate; 5 μM lectin per FIG. 5 legend (1 μM elsewhere in the source), 5 μM Ca2+, PBS pH 7
Procedure: (§3) Lectin attachment was performed in the presence of 5 μM Ca^2+.
(§4) The electrical performance of each such obtained “SWNT-FET” device was investigated in electrolyte gated FET device configuration. […] A small fluid (1 mL) chamber was placed over the SWNT-FET device to control the liquid environment using phosphate buffer solution (PBS) at pH 7. A liquid gate potential (−0.75V to 0.75 V) with respect to the grounded drain electrode was applied using Ag/AgCl (3 M KCl) reference electrode submerged in the electrolyte. The drain current of the device was measured at a constant source-drain voltage of 50 mV.
Surface functionalization of SWNT FET device with each porphyrin based glycoconjugate respectively named “5a”, “5b” and “5c” was performed by incubating them in their 5 μM solution in deionized water for 2 hours followed by rinsing with deionized water. This step was followed by incubating the chips for 30 minutes in different concentrations of lectin solutions prepared in PBS with 5 μM CaCl2 and latter rinsing with PBS solution.

[2] = test system: ConA lectin; assay: SWNT-FET electronic detection of glycoconjugate-lectin interaction (G vs Vg); assay type: binding, Canavalia ensiformis; conditions: SWNT-FET functionalized with glycoconjugate; 5 μM lectin, 5 μM Ca2+, PBS pH 7
Source text: ConA (25 kDa) is a plant lectin from Canavalia ensiformis that is specific for α-D-mannose and is available commercially from Sigma and used without further purification.

[3] = test system: ConA lectin; assay: CCG-FET electronic detection of glycoconjugate-lectin interaction (G vs Vg); assay type: binding, Canavalia ensiformis; conditions: CCG-FET functionalized with glycoconjugate; 2 μM lectin, 5 μM Ca2+, PBS
Procedure: (§1) FIG. 6 illustrates the electronic detection of carbohydrate-lectin interactions.
(§2) For each glycoconjugate functionalized device, non-specific lectins were tested first, followed by washing procedures and measuring of specific lectin. The final transfer characteristics were tested again in the configuration mentioned above.

[4] = test system: ConA lectin; assay: AFM imaging of SWNT functionalized with glycoconjugate before and after ConA lectin attachment; assay type: binding, Canavalia ensiformis; conditions: 5 μM Ca2+
Procedure: Atomic force microscope (AFM) images (FIG. 4) were obtained using scanning probe microscope (Veeco Nanoscope II) in a tapping mode configuration. Samples were prepared by spin coating of bare or functionalized SWNTs onto a freshly cleaved sheet of mica. The images were taken after 30 min of drying in ambient and subsequent washing with PBS solution (for functionalized SWNTs).
FIG. 4a depicts a small bundle of bare SWNTs with diameter of 3.4 nm. After non covalent functionalization with glycoconjugate “5b” (non covalent molecular structure “SWNT-5b”), SWNT bundles show diameters of 11.7-14.6 nm (FIG. 4b). Con A lectin binding to the functionalized “SWNT-5b” nanostructures (“SWNT-5b-ConA”) increases SWNT diameters to 18.3 nm (FIG. 4c).

[5] = target: T1, PA-IL lectin (Pseudomonas aeruginosa, UniProt Q05097); assay: CCG-FET electronic detection of glycoconjugate-lectin interaction (G vs Vg); assay type: binding; conditions: CCG-FET functionalized with glycoconjugate; 2 μM lectin, 5 μM Ca2+, PBS
T1 construct: made in house; host or cells: Escherichia coli
Procedure: as §1, §2

[6] = target: T1, PA-IL lectin; assay: SWNT-FET electronic detection of glycoconjugate-lectin interaction (G vs Vg); assay type: binding; conditions: SWNT-FET functionalized with glycoconjugate; 5 μM lectin, 5 μM Ca2+, PBS pH 7
Procedure: as §3, §4
This step was followed by incubating the chips for 30 minutes in different concentrations of lectin solutions prepared in PBS with 5 μM CaCl2 and latter rinsing with PBS solution.

T1 sequence (Q05097 whole entry): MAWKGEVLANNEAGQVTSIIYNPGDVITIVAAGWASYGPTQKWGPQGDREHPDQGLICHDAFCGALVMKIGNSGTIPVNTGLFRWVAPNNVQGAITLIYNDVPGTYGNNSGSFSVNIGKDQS

Molecule	change in G vs Vg curve (threshold voltage, conductance) on treating with PA-IIL lectin [1]	change in G vs Vg curve (threshold voltage, conductance) on treating with ConA lectin [2]	change in G vs Vg curve (threshold voltage, conductance) on treating with ConA lectin [3]	binding of Con A lectin to glycoconjugate on the surface of SWNTs (AFM) [4]	SWNT diameter after Con A lectin binding to functionalized SWNT (AFM) ([4]; SWNT-5b-ConA, 11.7-14.6 nm before lectin, bare SWNT bundle 3.4 nm) [nm]	change in G vs Vg curve (threshold voltage, conductance) on treating with PA-IL lectin [5]	change in G vs Vg curve (threshold voltage, conductance) on treating with PA-IL lectin [6]
C[C@@H]1O[C@@H](OCCOCCOCCn2cc(COc3ccc(-c4c5nc(c(-c6ccc(OCc7cn(CCOCCOCCO[C@@H]8O[C@@H](C)[C@@H](O)[C@@H](O)[C@@H]8O)nn7)cc6)c6ccc([n-]6)c(-c6ccc(OCc7cn(CCOCCOCCO[C@@H]8O[C@@H](C)[C@@H](O)[C@@H](O)[C@@H]8O)nn7)cc6)c6nc(c(-c7ccc(OCc8cn(CCOCCOCCO[C@@H]9O[C@@H](C)[C@@H](O)[C@@H](O)[C@@H]9O)nn8)cc7)c7ccc4[n-]7)C=C6)C=C5)cc3)nn2)[C@@H](O)[C@H](O)[C@@H]1O.[Zn+2] [5c, 5,10,15,20-Tetrakis(4′-{1-[(α-L-fucopyranosyloxy)-3,6-dioxaoct-8-yl]-1,2,3-triazol-4-yl}methyleneoxyphenyl)-Zn-(II)-porphyrin]	positive interactions	–	–	–	–	–	–
5,10,15,20-Tetrakis(4′-{1-[(α-D-mannopyranosyloxy)-3,6-dioxaoct-8-yl]-1,2,3-triazol-4-yl}methyleneoxyphenyl)-Zn-(II)-porphyrin [5b]	no significant change	positive interaction	negative shift in threshold voltage and further decrease in conductance	specific binding	18.3	no significant change	–
5,10,15,20-Tetrakis(4′-{1-[(β-D-galactopyranosyloxy)-3,6-dioxaoct-8-yl]-1,2,3-triazol-4-yl}methyleneoxyphenyl)-Zn-(II)-porphyrin [5a]	–	–	no significant change	–	–	negative shift in threshold voltage and further decrease in conductance	selective response
